What was measured:
[1] = target: Multidrug resistance-associated protein 1 (Homo sapiens, UniProt P33527); experiment: TP_TRANSPORTER: transepithelial transport (basal to apical) in MRP1-expressing MDCKII cells; assay type: functional, cell-based; details: dog, mdck-ii
[2] = target: ATP-binding cassette sub-family C member 2 (Homo sapiens, UniProt Q92887); experiment: TP_TRANSPORTER: transepithelial transport (basal to apical) in MRP2-expressing MDCKII cells; assay type: functional, cell-based; details: dog, mdck-ii
ATP-binding cassette sub-family C member 2, sequence (Q92887 whole entry): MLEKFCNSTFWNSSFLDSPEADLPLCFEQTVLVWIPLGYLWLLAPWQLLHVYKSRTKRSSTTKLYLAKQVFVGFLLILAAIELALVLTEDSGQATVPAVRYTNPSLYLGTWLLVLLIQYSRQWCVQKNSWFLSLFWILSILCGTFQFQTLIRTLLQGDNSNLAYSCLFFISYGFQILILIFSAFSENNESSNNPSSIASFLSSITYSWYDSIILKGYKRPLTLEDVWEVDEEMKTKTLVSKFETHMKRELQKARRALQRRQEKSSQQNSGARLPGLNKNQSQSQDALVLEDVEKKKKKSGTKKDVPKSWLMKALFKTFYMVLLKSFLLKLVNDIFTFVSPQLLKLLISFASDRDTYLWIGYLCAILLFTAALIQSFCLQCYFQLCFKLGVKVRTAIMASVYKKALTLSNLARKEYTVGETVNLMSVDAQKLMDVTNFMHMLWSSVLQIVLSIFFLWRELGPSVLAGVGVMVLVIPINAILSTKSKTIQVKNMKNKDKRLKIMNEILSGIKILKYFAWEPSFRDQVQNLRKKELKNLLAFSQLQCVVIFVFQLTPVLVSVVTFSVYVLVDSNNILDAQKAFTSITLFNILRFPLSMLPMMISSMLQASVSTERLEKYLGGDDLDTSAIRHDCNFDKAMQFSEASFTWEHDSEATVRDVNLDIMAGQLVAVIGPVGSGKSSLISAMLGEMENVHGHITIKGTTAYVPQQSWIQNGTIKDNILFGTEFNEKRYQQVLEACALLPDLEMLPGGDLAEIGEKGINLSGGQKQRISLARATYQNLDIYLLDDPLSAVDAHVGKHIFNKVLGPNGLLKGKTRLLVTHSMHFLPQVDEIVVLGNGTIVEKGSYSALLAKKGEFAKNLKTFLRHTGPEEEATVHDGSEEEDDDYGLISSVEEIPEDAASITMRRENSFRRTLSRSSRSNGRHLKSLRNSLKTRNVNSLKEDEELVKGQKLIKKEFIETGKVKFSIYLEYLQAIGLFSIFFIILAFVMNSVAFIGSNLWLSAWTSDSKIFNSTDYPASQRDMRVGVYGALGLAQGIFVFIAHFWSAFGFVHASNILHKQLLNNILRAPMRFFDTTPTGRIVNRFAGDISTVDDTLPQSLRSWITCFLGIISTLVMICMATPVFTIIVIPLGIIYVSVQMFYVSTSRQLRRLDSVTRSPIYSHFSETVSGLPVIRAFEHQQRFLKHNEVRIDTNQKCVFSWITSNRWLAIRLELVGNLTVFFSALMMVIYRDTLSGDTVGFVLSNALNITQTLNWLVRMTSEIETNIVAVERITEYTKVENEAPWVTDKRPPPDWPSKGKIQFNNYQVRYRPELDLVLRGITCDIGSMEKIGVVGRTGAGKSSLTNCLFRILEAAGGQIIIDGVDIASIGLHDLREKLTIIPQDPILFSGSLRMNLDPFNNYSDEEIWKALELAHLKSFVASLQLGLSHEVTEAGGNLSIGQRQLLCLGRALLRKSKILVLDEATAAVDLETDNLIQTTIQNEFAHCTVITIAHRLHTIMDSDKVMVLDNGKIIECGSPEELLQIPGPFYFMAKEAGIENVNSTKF

Multidrug resistance-associated protein 1, sequence (P33527 whole entry): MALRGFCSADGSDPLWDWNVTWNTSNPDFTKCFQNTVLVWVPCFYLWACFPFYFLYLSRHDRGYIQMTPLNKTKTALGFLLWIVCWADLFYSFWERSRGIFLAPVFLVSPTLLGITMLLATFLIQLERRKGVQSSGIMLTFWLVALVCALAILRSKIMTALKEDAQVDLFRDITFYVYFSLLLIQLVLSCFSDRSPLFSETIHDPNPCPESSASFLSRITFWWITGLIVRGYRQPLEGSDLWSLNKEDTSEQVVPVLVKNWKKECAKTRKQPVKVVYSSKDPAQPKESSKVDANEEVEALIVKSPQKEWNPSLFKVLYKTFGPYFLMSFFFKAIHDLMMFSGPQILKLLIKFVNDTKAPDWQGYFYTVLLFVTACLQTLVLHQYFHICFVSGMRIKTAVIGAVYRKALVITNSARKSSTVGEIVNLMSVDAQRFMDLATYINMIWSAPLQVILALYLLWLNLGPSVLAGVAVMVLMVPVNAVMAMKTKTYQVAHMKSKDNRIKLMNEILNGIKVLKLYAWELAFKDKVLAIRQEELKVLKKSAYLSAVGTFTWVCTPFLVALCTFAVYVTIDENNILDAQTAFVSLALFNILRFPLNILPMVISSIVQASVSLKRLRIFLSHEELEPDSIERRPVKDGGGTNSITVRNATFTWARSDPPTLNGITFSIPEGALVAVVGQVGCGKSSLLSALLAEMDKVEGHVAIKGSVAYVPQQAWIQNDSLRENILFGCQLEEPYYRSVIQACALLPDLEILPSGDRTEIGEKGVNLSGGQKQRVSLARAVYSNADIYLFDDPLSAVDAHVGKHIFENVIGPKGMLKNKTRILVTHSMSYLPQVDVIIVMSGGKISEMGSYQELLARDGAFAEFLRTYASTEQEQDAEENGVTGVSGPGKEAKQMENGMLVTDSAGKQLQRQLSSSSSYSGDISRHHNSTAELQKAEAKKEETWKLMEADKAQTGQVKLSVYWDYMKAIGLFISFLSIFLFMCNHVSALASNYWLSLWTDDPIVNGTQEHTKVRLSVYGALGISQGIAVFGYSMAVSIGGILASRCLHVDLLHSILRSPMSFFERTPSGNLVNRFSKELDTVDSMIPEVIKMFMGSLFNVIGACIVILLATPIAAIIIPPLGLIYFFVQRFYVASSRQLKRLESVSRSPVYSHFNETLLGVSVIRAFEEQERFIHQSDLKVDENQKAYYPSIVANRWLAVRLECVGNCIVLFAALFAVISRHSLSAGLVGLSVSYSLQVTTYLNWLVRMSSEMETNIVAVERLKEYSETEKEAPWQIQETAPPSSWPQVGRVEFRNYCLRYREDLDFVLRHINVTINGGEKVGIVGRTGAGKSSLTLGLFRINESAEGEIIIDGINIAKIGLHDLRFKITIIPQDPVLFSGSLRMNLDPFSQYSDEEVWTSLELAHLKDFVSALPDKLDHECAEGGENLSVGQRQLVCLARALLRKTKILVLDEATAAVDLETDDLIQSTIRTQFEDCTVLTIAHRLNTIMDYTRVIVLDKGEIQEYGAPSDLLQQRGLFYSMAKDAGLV

Question: `CC(C)(C)NC(=O)[C@@H]1C[C@@H]2CCCC[C@@H]2CN1C[C@@H](O)[C@H](Cc1ccccc1)NC(=O)[C@H](CC(N)=O)NC(=O)c1ccc2ccccc2n1` [SAQUINAVIR] was tested. Which Activity [1] did it give?
Answer: substrate [+]

Question: And the Activity [2]?
Answer: substrate [+]

Reference: ChEMBL document CHEMBL2073769, “Direct evidence that saquinavir is transported by multidrug resistance-associated protein (MRP1) and canalicular multispecific organic anion transporter (MRP2)” (Antimicrob Agents Chemother, 2002)
